The target of the assay is Serine/threonine-protein kinase mTOR (Homo sapiens, UniProt P42345). Briefly: mTOR Kinase Assay. The following applies: 25 °C.

Here are results for one compound from BindingDB's records for doi:10.1021/jm9012642 (Wyeth Research, 2009).

As for `Oc1cccc(-c2nc(N3CCOCC3)c3cnn(C4CCN(Cc5cccnc5)CC4)c3n2)c1` [JMC527081 Compound 5f], inhibition was half-maximal at 47 nM (IC50).
